{"source": "patent US12102063B2", "about": "(SYNEXIS LLC, priority 2017, dated 2024)", "test_system": "eggs and hatched chicks", "key": {"[1]": {"conditions": "Day 4 DHP+, summary of replicates stored 4 days"}, "[2]": {"conditions": "Day 5 DHP+, summary of replicates stored 5 days"}, "[3]": {"conditions": "Day 6 DHP+, summary of replicates stored 6 days"}, "[4]": {"conditions": "Day 7 DHP+, summary of replicates stored 7 days"}, "[5]": {"conditions": "Delta Avg. Trtd versus Avg. Untrd, egg storage 4 to 7 days"}}, "note": "Like-named read-outs stand apart in the source and are kept apart here.", "protocol": "A total of 22 replicates of 90 eggs each of age matched, flock matched eggs are stored prior to incubation for 4 to 7 days in an on-site egg room at about 20° C. […] The paired replicates are then incubated to hatching under standard commercial conditions. At hatching, the following parameters are assessed and recorded: Total Hatchability (%), Fertile Hatchability (%),% Infertile, Early dead (%), Mid dead (%), Late dead (%), Cracked (%), Contaminated (%), Live pip (%), Dead pip (%), Cull dead chick (%), Chick Weight (g), Chick A (%), and Chick B (%)."}
{"smiles": "OO", "note": "[DHP, dry hydrogen peroxide]", "values": [{"measurement": "% Infertile, delta", "setting": "4 day delta, DHP+ versus DHP−", "result": 0.64, "unit": "%"}, {"measurement": "Chick A, delta", "setting": "4 day delta, DHP+ versus DHP−", "result": 0.14, "unit": "%"}, {"measurement": "Chick B, delta", "setting": "4 day delta, DHP+ versus DHP−", "result": "−0.14", "unit": "%"}, {"measurement": "Chick Weight, delta", "setting": "4 day delta, DHP+ versus DHP−", "result": 0.89, "unit": "g"}, {"measurement": "Cont, delta", "setting": "4 day delta, DHP+ versus DHP−", "result": 0.00, "unit": "%"}, {"measurement": "Crack, delta", "setting": "4 day delta, DHP+ versus DHP−", "result": 0.32, "unit": "%"}, {"measurement": "Cull dead cks, delta", "setting": "4 day delta, DHP+ versus DHP−", "result": 0.00, "unit": "%"}, {"measurement": "Dead pip, delta", "setting": "4 day delta, DHP+ versus DHP−", "result": "−0.16", "unit": "%"}, {"measurement": "Early dead, delta", "setting": "4 day delta, DHP+ versus DHP−", "result": "−0.33", "unit": "%"}, {"measurement": "Fertile Hatchability, delta", "setting": "4 day delta, DHP+ versus DHP−", "result": 0.12, "unit": "%"}, {"measurement": "Late dead, delta", "setting": "4 day delta, DHP+ versus DHP−", "result": "−0.64", "unit": "%"}, {"measurement": "Live pip, delta", "setting": "4 day delta, DHP+ versus DHP−", "result": 0.63, "unit": "%"}, {"measurement": "Mid dead, delta", "setting": "4 day delta, DHP+ versus DHP−", "result": 0.16, "unit": "%"}, {"measurement": "Total Hatchability, delta", "setting": "4 day delta, DHP+ versus DHP−", "result": "−0.64", "unit": "%"}, {"measurement": "Chick Weight, delta", "setting": "5 day delta, DHP+ versus DHP−", "result": 0.85, "unit": "g"}, {"measurement": "Cont, delta", "setting": "5 day delta, DHP+ versus DHP−", "result": 0.00, "unit": "%"}, {"measurement": "Crack, delta", "setting": "5 day delta, DHP+ versus DHP−", "result": "−0.19", "unit": "%"}, {"measurement": "Cull dead cks, delta", "setting": "5 day delta, DHP+ versus DHP−", "result": 0.00, "unit": "%"}, {"measurement": "Dead pip, delta", "setting": "5 day delta, DHP+ versus DHP−", "result": "−0.37", "unit": "%"}, {"measurement": "Early dead, delta", "setting": "5 day delta, DHP+ versus DHP−", "result": "−1.70", "unit": "%"}, {"measurement": "Fertile Hatchability, delta", "setting": "5 day delta, DHP+ versus DHP−", "result": 3.20, "unit": "%"}, {"measurement": "Live pip, delta", "setting": "5 day delta, DHP+ versus DHP−", "result": 0.37, "unit": "%"}, {"measurement": "Mid dead, delta", "setting": "5 day delta, DHP+ versus DHP−", "result": 0.74, "unit": "%"}, {"measurement": "% Infertile, delta", "setting": "6 day delta, DHP+ versus DHP−", "result": 0.94, "unit": "%"}, {"measurement": "Chick A, delta", "setting": "6 day delta, DHP+ versus DHP−", "result": "−0.57", "unit": "%"}, {"measurement": "Chick B, delta", "setting": "6 day delta, DHP+ versus DHP−", "result": 0.57, "unit": "%"}, {"measurement": "Chick Weight, delta", "setting": "6 day delta, DHP+ versus DHP−", "result": 0.49, "unit": "g"}, {"measurement": "Cont, delta", "setting": "6 day delta, DHP+ versus DHP−", "result": 0.00, "unit": "%"}, {"measurement": "Crack, delta", "setting": "6 day delta, DHP+ versus DHP−", "result": 0.00, "unit": "%"}, {"measurement": "Cull dead cks, delta", "setting": "6 day delta, DHP+ versus DHP−", "result": "−0.48", "unit": "%"}, {"measurement": "Dead pip, delta", "setting": "6 day delta, DHP+ versus DHP−", "result": "−0.48", "unit": "%"}, {"measurement": "Late dead, delta", "setting": "6 day delta, DHP+ versus DHP−", "result": "−0.82", "unit": "%"}, {"measurement": "Live pip, delta", "setting": "6 day delta, DHP+ versus DHP−", "result": "−0.16", "unit": "%"}, {"measurement": "Mid dead, delta", "setting": "6 day delta, DHP+ versus DHP−", "result": 0.48, "unit": "%"}, {"measurement": "Cont", "setting": "[1]", "result": 0.00, "unit": "%"}, {"measurement": "Crack", "setting": "[1]", "result": 0.48, "unit": "%"}, {"measurement": "Cull dead cks", "setting": "[1]", "result": 0.00, "unit": "%"}, {"measurement": "Dead pip", "setting": "[1]", "result": 0.16, "unit": "%"}, {"measurement": "Live pip", "setting": "[1]", "result": 0.95, "unit": "%"}, {"measurement": "Mid dead", "setting": "[1]", "result": 0.16, "unit": "%"}, {"measurement": "Cont", "setting": "[2]", "result": 0.00, "unit": "%"}, {"measurement": "Crack", "setting": "[2]", "result": 0.00, "unit": "%"}, {"measurement": "Cull dead cks", "setting": "[2]", "result": 0.00, "unit": "%"}, {"measurement": "Dead pip", "setting": "[2]", "result": 0.00, "unit": "%"}, {"measurement": "Live pip", "setting": "[2]", "result": 0.56, "unit": "%"}, {"measurement": "Mid dead", "setting": "[2]", "result": 0.93, "unit": "%"}, {"measurement": "Cont", "setting": "[3]", "result": 0.00, "unit": "%"}, {"measurement": "Crack", "setting": "[3]", "result": 0.00, "unit": "%"}, {"measurement": "Cull dead cks", "setting": "[3]", "result": 0.00, "unit": "%"}, {"measurement": "Dead pip", "setting": "[3]", "result": 0.00, "unit": "%"}, {"measurement": "Early dead", "setting": "[3]", "result": 2.70, "unit": "%"}, {"measurement": "Live pip", "setting": "[3]", "result": 0.16, "unit": "%"}, {"measurement": "Mid dead", "setting": "[3]", "result": 0.79, "unit": "%"}, {"measurement": "% Infertile", "setting": "[4]", "result": 0.56, "unit": "%"}, {"measurement": "Cont", "setting": "[4]", "result": 0.00, "unit": "%"}, {"measurement": "Crack", "setting": "[4]", "result": 0.00, "unit": "%"}, {"measurement": "Cull dead cks", "setting": "[4]", "result": 0.56, "unit": "%"}, {"measurement": "Dead pip", "setting": "[4]", "result": 0.00, "unit": "%"}, {"measurement": "Mid dead", "setting": "[4]", "result": 0.56, "unit": "%"}, {"measurement": "% Infertile, delta", "setting": "Day 7 Delta, DHP+ versus DHP−", "result": 0.00, "unit": "%"}, {"measurement": "Chick Weight, delta", "setting": "Day 7 Delta, DHP+ versus DHP−", "result": 1.10, "unit": "g"}, {"measurement": "Cont, delta", "setting": "Day 7 Delta, DHP+ versus DHP−", "result": "−0.56", "unit": "%"}, {"measurement": "Crack, delta", "setting": "Day 7 Delta, DHP+ versus DHP−", "result": 0.00, "unit": "%"}, {"measurement": "Cull dead cks, delta", "setting": "Day 7 Delta, DHP+ versus DHP−", "result": 0.56, "unit": "%"}, {"measurement": "Dead pip, delta", "setting": "Day 7 Delta, DHP+ versus DHP−", "result": 0.00, "unit": "%"}, {"measurement": "Fertile Hatchability, delta", "setting": "Day 7 Delta, DHP+ versus DHP−", "result": 0.56, "unit": "%"}, {"measurement": "Late dead, delta", "setting": "Day 7 Delta, DHP+ versus DHP−", "result": 0.55, "unit": "%"}, {"measurement": "Mid dead, delta", "setting": "Day 7 Delta, DHP+ versus DHP−", "result": 0.56, "unit": "%"}, {"measurement": "Total Hatchability, delta", "setting": "Day 7 Delta, DHP+ versus DHP−", "result": 0.56, "unit": "%"}, {"measurement": "% Infertile, delta", "setting": "[5]", "result": 1.00, "unit": "%"}, {"measurement": "Chick A, delta", "setting": "[5]", "result": 0.23, "unit": "%"}, {"measurement": "Chick B, delta", "setting": "[5]", "result": "−0.23", "unit": "%"}, {"measurement": "Chick Weight, delta", "setting": "[5]", "result": 0.77, "unit": "g"}]}
